Earlier results, collected in PMC5698879 (Inorganic Chemistry, 2017).
Where two headings read alike, the source gives them in different places.

Conditions: [Cu^2+]tot = [chelator]tot = 50 μM

- Calculated pCu (−log [Cu]free) (pH 6.6): 9.7
- Calculated pCu (−log [Cu]free) (pH 7.4): 10.7
SMILES: O=C(O)CN(CCN(CC(=O)O)CC(=O)O)CCN(CC(=O)O)CC(=O)O [DTPA, diethylenetriaminepentacetic acid]
